Several values for one entry are separate records, joined by “and”; a condition that tells them apart may be missing. Equal values may be shown once. Read-outs that look alike come from different tables or passages of the source.
Test system: NCI-60 standardized human tumor cell line panel
Test: cells
Format: cell-based

`COc1cc2cc(C(=O)N3C[C@@H](CCl)c4c3cc(OC(=O)N(CCC(=O)N3CCN(C)CC3)C3CCCCC3)c3ccccc43)[nH]c2c(OC)c1OC` [P-CC60-CBI-TMI] was tested, and the “NCI-60 screening: Log(GI50)” value was -5.81 and -5.62, the “NCI-60 screening: Log(GI50)” value (786-0 (RE) cell line, log10 of GI50 in M) was -5.76 and the GI50 (786-0 (RE) cell line, read-out: NCI-60 screening: Raw GI50) was 1700 nM. The GI50 (786-0, read-out: GI50) was 1700 nM, the “NCI-60 screening: Log(GI50)” value (A498 (RE) cell line, log10 of GI50 in M) was -5.56 and the GI50 (A498 (RE) cell line, read-out: NCI-60 screening: Raw GI50) was 2800 nM. The GI50 (A498, read-out: GI50) was 2800 nM, the GI50 (A549/ATCC, read-out: GI50) was 2000 nM and the “NCI-60 screening: Log(GI50)” value (ACHN (RE) cell line, log10 of GI50 in M) was -6.31. The GI50 (ACHN, read-out: GI50) was 490 nM, the GI50 (BT-549, read-out: GI50) was 1600 nM and the “NCI-60 screening: Log(GI50)” value (CAKI-1 (RE) cell line, log10 of GI50 in M) was -5.83. For the same compound, the GI50 (CAKI-1 (RE) cell line, read-out: NCI-60 screening: Raw GI50) was 1500 nM, the GI50 (CAKI-1, read-out: GI50) was 1500 nM and the GI50 (CCRF-CEM, read-out: GI50) was 990 nM. For the same compound, the GI50 (COLO 205, read-out: GI50) was 1400 nM, the “NCI-60 screening: Log(GI50)” value (DU-145 (PR) cell line, log10 of GI50 in M) was -6.34 and the GI50 (DU-145, read-out: GI50) was 460 nM. For the same compound, the GI50 (EKVX, read-out: GI50) was 1900 nM, the GI50 (HCC-2998, read-out: GI50) was 1500 nM and the GI50 (HCT-15, read-out: GI50) was 1700 nM. It also gave a GI50 (HCT-116, read-out: GI50) of 1500 nM, a GI50 (HL-60(TB), read-out: GI50) of 750 nM and a GI50 (HOP-62, read-out: GI50) of 590 nM. For the same compound, the GI50 (HOP-92, read-out: GI50) was 2500 nM, the GI50 (HT29, read-out: GI50) was 1500 nM and the “NCI-60 screening: Log(GI50)” value (IGROV1 (OV) cell line, log10 of GI50 in M) was -5.64. The GI50 (IGROV1 (OV) cell line, read-out: NCI-60 screening: Raw GI50) was 2300 nM, the GI50 (IGROV1, read-out: GI50) was 2300 nM and the GI50 (K-562, read-out: GI50) was 680 nM. It also gave a GI50 (KM12, read-out: GI50) of 2100 nM, a GI50 (LOX IMVI, read-out: GI50) of 1100 nM and a GI50 (M14, read-out: GI50) of 1500 nM. For the same compound, the GI50 (MALME-3M, read-out: GI50) was 1600 nM, the GI50 (MCF7, read-out: GI50) was 320 nM and the GI50 (MDA-MB-435, read-out: GI50) was 1800 nM. The GI50 (MDA-MB-468, read-out: GI50) was 690 nM, the GI50 (MOLT-4, read-out: GI50) was 590 nM and the “GI50/IC50, mean” value (NCI-60 vs ProliFiler, 19 overlapping cell lines) was 4.6. For the same compound, the GI50 (NCI-H23, read-out: GI50) was 470 nM, the GI50 (NCI-H226, read-out: GI50) was 1400 nM and the “NCI-60 screening: Log(GI50)” value (NCI-H460 (LC) cell line, log10 of GI50 in M) was -6.29. The GI50 (NCI-H460, read-out: GI50) was 510 nM, the “NCI-60 screening: Log(GI50)” value (NCI-H522 (LC) cell line, log10 of GI50 in M) was -5.77 and the GI50 (NCI-H522 (LC) cell line, read-out: NCI-60 screening: Raw GI50) was 1700 nM. For the same compound, the GI50 (NCI-H522, read-out: GI50) was 1700 nM, the “NCI-60 screening: Log(GI50)” value (OVCAR-3 (OV) cell line, log10 of GI50 in M) was -5.68 and the GI50 (OVCAR-3 (OV) cell line, read-out: NCI-60 screening: Raw GI50) was 2100 nM. For the same compound, the GI50 (OVCAR-3, read-out: GI50) was 2100 nM, the “NCI-60 screening: Log(GI50)” value (OVCAR-4 (OV) cell line, log10 of GI50 in M) was -5.63 and the GI50 (OVCAR-4 (OV) cell line, read-out: NCI-60 screening: Raw GI50) was 2300 nM. The GI50 (OVCAR-4, read-out: GI50) was 2300 nM, the “NCI-60 screening: Log(GI50)” value (OVCAR-5 (OV) cell line, log10 of GI50 in M) was -5.29 and the GI50 (OVCAR-5, read-out: GI50) was 5100 nM. The “NCI-60 screening: Log(GI50)” value (OVCAR-8 (OV) cell line, log10 of GI50 in M) was -5.78, the GI50 (OVCAR-8 (OV) cell line, read-out: NCI-60 screening: Raw GI50) was 1700 nM and the GI50 (OVCAR-8, read-out: GI50) was 1700 nM. The “NCI-60 screening: Log(GI50)” value (PC-3 (PR) cell line, log10 of GI50 in M) was -5.5, the GI50 (PC-3, read-out: GI50) was 3100 nM and the GI50 (RPMI-8226, read-out: GI50) was 1500 nM. The “NCI-60 screening: Log(GI50)” value (RXF 393 (RE) cell line, log10 of GI50 in M) was -5.97, the GI50 (RXF 393 (RE) cell line, read-out: NCI-60 screening: Raw GI50) was 1100 nM and the GI50 (RXF 393, read-out: GI50) was 1100 nM. It also gave a GI50 (SF-268, read-out: GI50) of 1500 nM, a GI50 (SF-295, read-out: GI50) of 1500 nM and a GI50 (SF-539, read-out: GI50) of 1300 nM. For the same compound, the GI50 (SK-MEL-5, read-out: GI50) was 1600 nM, the GI50 (SK-MEL-28, read-out: GI50) was 3600 nM and the “NCI-60 screening: Log(GI50)” value (SK-OV-3 (OV) cell line, log10 of GI50 in M) was -5.67. The GI50 (SK-OV-3 (OV) cell line, read-out: NCI-60 screening: Raw GI50) was 2200 nM, the GI50 (SK-OV-3, read-out: GI50) was 2200 nM and the “NCI-60 screening: Log(GI50)” value (SN12C (RE) cell line, log10 of GI50 in M) was -5.92. The GI50 (SN12C, read-out: GI50) was 1200 nM.

Reference: article PMC10141580, “Cyclic Dichalcogenides Extend the Reach of Bioreductive Prodrugs to Harness Thiol/Disulfide Oxidoreductases: Applications to seco-Duocarmycins Targeting the Thioredoxin System” (ACS Central Science, 2023)
